How the values were obtained:
Experiment in all cases: combination Emax (second highest fraction inhibited in the dose matrix, 72 h); higher = more inhibition; extreme values may be limits of the assay
[1] = test system: EFM-19 (Breast Carcinoma)
Procedure, shortened: (§1)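 Bliss excess equals the observed combination effect minus the expected value EA + EB − EA·EB, where EA and EB are the effects of each agent alone. Combination Emax is the second-highest inhibition within the matrix. Inhibition was scaled from CellTiter-Glo 2.0 luminescence, with 0 set by vehicle wells and 1 by blank wells, after 72 hours of two-drug dosing of cells plated in 1536-well plates.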

EW-24 (Ewing's Sarcoma) = test system: EW-24 (Ewing's Sarcoma)
Procedure, shortened: as §1

[2] = test system: SW13 (Other Solid Carcinomas)
Procedure, shortened: as §1

[3] = test system: RF-48 (B-Cell Non-Hodgkin's Lymphoma)
Procedure, shortened: as §1

[4] = test system: MIA-PaCa-2 (Pancreatic Carcinoma)
Procedure, shortened: as §1

[5] = test system: KYSE-450 (Esophageal Squamous Cell Carcinoma)
Procedure, shortened: as §1

NB69 (Neuroblastoma) = test system: NB69 (Neuroblastoma)
Procedure, shortened: as §1

UACC-62 (Melanoma) = test system: UACC-62 (Melanoma)
Procedure, shortened: as §1

[6] = test system: NCI-H358 (Lung Adenocarcinoma)
Procedure, shortened: as §1

[7] = test system: NCI-H727 (Other Solid Carcinomas)
Procedure, shortened: as §1

ACHN (Kidney Carcinoma) = test system: ACHN (Kidney Carcinoma)
Procedure, shortened: as §1

TK10 (Kidney Carcinoma) = test system: TK10 (Kidney Carcinoma)
Procedure, shortened: as §1

[8] = test system: Caov-4 (Ovarian Carcinoma)
Procedure, shortened: as §1

C=CCn1c(=O)c2cnc(Nc3ccc(N4CCN(C)CC4)cc3)nc2n1-c1cccc(C(C)(C)O)n1 [AZD1775] + CCc1c2c(nc3ccc(O)cc13)-c1cc3c(c(=O)n1C2)COC(=O)[C@]3(O)CC [SN-38] (first compound max 1 µM, partner max 0.3 µM)
combination Emax [1]: 0.743
combination Emax (EW-24 (Ewing's Sarcoma)): 0.782
combination Emax [2]: 0.964
combination Emax [3]: 0.783
combination Emax [4]: 0.969
combination Emax [5]: 0.951
combination Emax (NB69 (Neuroblastoma)): 0.997
combination Emax (UACC-62 (Melanoma)): 0.745
combination Emax [6]: 0.687
combination Emax [7]: 0.514
combination Emax (ACHN (Kidney Carcinoma)): 0.946
combination Emax (TK10 (Kidney Carcinoma)): 0.612
combination Emax [8]: 0.905

C=CCn1c(=O)c2cnc(Nc3ccc(N4CCN(C)CC4)cc3)nc2n1-c1cccc(C(C)(C)O)n1 [AZD1775] + Nc1ccn([C@@H]2O[C@H](CO)[C@@H](O)C2(F)F)c(=O)n1 [Gemcitabine] (first compound max 1 µM, partner max 0.3 µM)
combination Emax [1]: 0.614
combination Emax (EW-24 (Ewing's Sarcoma)): 0.658
combination Emax [2]: 0.928
combination Emax [3]: 0.727
combination Emax [4]: 0.947
combination Emax [5]: 0.875
combination Emax (NB69 (Neuroblastoma)): 1
combination Emax (UACC-62 (Melanoma)): 0.73
combination Emax [6]: 0.516
combination Emax [7]: 0.392
combination Emax (ACHN (Kidney Carcinoma)): 0.853
combination Emax (TK10 (Kidney Carcinoma)): 0.456
combination Emax [8]: 0.837

CN(CCO)CC[C@H](CSc1ccccc1)Nc1ccc(S(=O)(=O)NC(=O)c2ccc(N3CCC([C@@H](O)c4ccccc4-c4ccc(Cl)cc4)CC3)cc2)cc1S(=O)(=O)C(F)(F)F [AZD4320] + CS(=O)(=O)CCNCc1ccc(-c2ccc3ncnc(Nc4ccc(OCc5cccc(F)c5)c(Cl)c4)c3c2)o1 [Lapatinib] (first compound max 1 µM, 7x7, partner max 10 µM)
combination Emax [1]: 0.846
combination Emax (EW-24 (Ewing's Sarcoma)): 0.931
combination Emax [2]: 0.804
combination Emax [3]: 0.874
combination Emax [4]: 0.832
combination Emax [5]: 0.41
combination Emax (NB69 (Neuroblastoma)): 0.983
combination Emax (UACC-62 (Melanoma)): 0.362
combination Emax [6]: 0.629
combination Emax [7]: 0.96
combination Emax (ACHN (Kidney Carcinoma)): 0.466
combination Emax (TK10 (Kidney Carcinoma)): 0.92
combination Emax [8]: 0.955

Cc1c2c(nn1C)CSCc1cc(n(C)n1)CSc1cc(c3ccccc3c1)OCCCc1c(C(=O)O)n(C)c3c-2c(Cl)ccc13 [AZD5991] + CC(=O)O[C@H]1C(=O)[C@@]2(C)[C@H]([C@H](OC(=O)c3ccccc3)[C@]3(O)C[C@H](OC(=O)[C@H](O)[C@@H](NC(=O)c4ccccc4)c4ccccc4)C(C)=C1C3(C)C)[C@]1(OC(C)=O)CO[C@@H]1C[C@@H]2O [Paclitaxel] (first compound max 1 µM, 7x7, partner max 3 µM)
combination Emax [1]: 0.931
combination Emax (EW-24 (Ewing's Sarcoma)): 0.734
combination Emax [2]: 1
combination Emax [3]: 0.807
combination Emax [4]: 0.807
combination Emax [5]: 0.847
combination Emax (NB69 (Neuroblastoma)): 1
combination Emax (UACC-62 (Melanoma)): 0.831
combination Emax [6]: 0.818
combination Emax [7]: 0.136
combination Emax (ACHN (Kidney Carcinoma)): 0.604
combination Emax (TK10 (Kidney Carcinoma)): 0.519
combination Emax [8]: 0.833

Cc1c2c(nn1C)CSCc1cc(n(C)n1)CSc1cc(c3ccccc3c1)OCCCc1c(C(=O)O)n(C)c3c-2c(Cl)ccc13 [AZD5991] + CS(=O)(=O)CCNCc1ccc(-c2ccc3ncnc(Nc4ccc(OCc5cccc(F)c5)c(Cl)c4)c3c2)o1 [Lapatinib] (first compound max 1 µM, 7x7, partner max 10 µM)
combination Emax [1]: 0.364
combination Emax (EW-24 (Ewing's Sarcoma)): 0.32
combination Emax [2]: 0.973
combination Emax [3]: 0.244
combination Emax [4]: 0.496
combination Emax [5]: 0.541
combination Emax (NB69 (Neuroblastoma)): 0.902
combination Emax (UACC-62 (Melanoma)): 0.576
combination Emax [6]: 0.478
combination Emax [7]: 0.299
combination Emax (ACHN (Kidney Carcinoma)): 0.481
combination Emax (TK10 (Kidney Carcinoma)): 0.56
combination Emax [8]: 0.891

Cc1c2c(nn1C)CSCc1cc(n(C)n1)CSc1cc(c3ccccc3c1)OCCCc1c(C(=O)O)n(C)c3c-2c(Cl)ccc13 [AZD5991] + Nc1ccn([C@@H]2O[C@H](CO)[C@@H](O)C2(F)F)c(=O)n1 [Gemcitabine] (first compound max 1 µM, 7x7, partner max 0.3 µM)
combination Emax [1]: 0.573
combination Emax (EW-24 (Ewing's Sarcoma)): 0.672
combination Emax [2]: 0.981
combination Emax [3]: 0.679
combination Emax [4]: 0.85
combination Emax [5]: 0.459
combination Emax (NB69 (Neuroblastoma)): 0.99
combination Emax (UACC-62 (Melanoma)): 0.753
combination Emax [6]: 0.381
combination Emax [7]: 0.283
combination Emax (ACHN (Kidney Carcinoma)): 0.744
combination Emax (TK10 (Kidney Carcinoma)): 0.346
combination Emax [8]: 0.83

C[C@@H]1COCCN1c1cc(C2([S@](C)(=N)=O)CC2)nc(-c2ccnc3[nH]ccc23)n1 [AZD6738] + C1CC(C1)(C(=O)[O-])C(=O)[O-].N.N.[Pt+2] [Carboplatin] (first compound max 10 µM, 7x7, partner max 10 µM)
combination Emax [1]: 0.211
combination Emax (EW-24 (Ewing's Sarcoma)): 0.703
combination Emax [2]: 0.344
combination Emax [3]: 0.329
combination Emax [4]: 0.547
combination Emax [5]: 0.312
combination Emax (NB69 (Neuroblastoma)): 0.857
combination Emax (UACC-62 (Melanoma)): 0.246
combination Emax [6]: 0.505
combination Emax [7]: 0.472
combination Emax (ACHN (Kidney Carcinoma)): 0.819
combination Emax (TK10 (Kidney Carcinoma)): 0.634
combination Emax [8]: 0.813

C[C@@H]1COCCN1c1cc(C2([S@](C)(=N)=O)CC2)nc(-c2ccnc3[nH]ccc23)n1 [AZD6738] + Nc1ccn([C@@H]2O[C@H](CO)[C@@H](O)C2(F)F)c(=O)n1 [Gemcitabine] (first compound max 10 µM, 7x7, partner max 0.3 µM)
combination Emax [1]: 0.795
combination Emax (EW-24 (Ewing's Sarcoma)): 0.8
combination Emax [2]: 0.932
combination Emax [3]: 0.77
combination Emax [4]: 0.947
combination Emax [5]: 0.862
combination Emax (NB69 (Neuroblastoma)): 1
combination Emax (UACC-62 (Melanoma)): 0.757
combination Emax [6]: 0.733
combination Emax [7]: 0.526
combination Emax (ACHN (Kidney Carcinoma)): 0.875
combination Emax [8]: 0.894

C[C@@H](Nc1cc(F)cc(F)c1)c1cc(C(=O)N(C)C)cc2c(=O)cc(N3CCOCC3)oc12 [AZD8186] + C1CN(CCC1(C(=O)N[C@@H](CCO)C2=CC=C(C=C2)Cl)N)C3=NC=NC4=C3C=CN4 [AZD5363] (first compound max 10 µM, 7x7, partner max 10 µM)
combination Emax [1]: 0.432
combination Emax (EW-24 (Ewing's Sarcoma)): 0.447
combination Emax [2]: 0.251
combination Emax [3]: 0.432
combination Emax [4]: 0.258
combination Emax [5]: 0.31
combination Emax (NB69 (Neuroblastoma)): 0.659
combination Emax (UACC-62 (Melanoma)): 0.514
combination Emax [6]: 0.33
combination Emax [7]: 0.411
combination Emax (ACHN (Kidney Carcinoma)): 0.414
combination Emax (TK10 (Kidney Carcinoma)): 0.454
combination Emax [8]: 0.309

C[C@@H](Nc1cc(F)cc(F)c1)c1cc(C(=O)N(C)C)cc2c(=O)cc(N3CCOCC3)oc12 [AZD8186] + CC(=O)c1c(C)c2cnc(Nc3ccc(N4CCNCC4)cn3)nc2n(C2CCCC2)c1=O [Palbociclib] (first compound max 10 µM, 7x7, partner max 10 µM)
combination Emax [1]: 0.449
combination Emax (EW-24 (Ewing's Sarcoma)): 0.563
combination Emax [2]: 0.316
combination Emax [3]: 0.4
combination Emax [4]: 0.471
combination Emax [5]: 0.378
combination Emax (NB69 (Neuroblastoma)): 0.927
combination Emax (UACC-62 (Melanoma)): 0.51
combination Emax [6]: 0.398
combination Emax [7]: 0.362
combination Emax (ACHN (Kidney Carcinoma)): 0.661
combination Emax (TK10 (Kidney Carcinoma)): 0.556
combination Emax [8]: 0.29

C[C@@H](Oc1cc(-c2cnn(C3CCNCC3)c2)cnc1N)c1c(Cl)ccc(F)c1Cl [Crizotinib] + CC1=C(C(=CC=C1)Cl)NC(=O)C2=CN=C(S2)NC3=CC(=NC(=N3)C)N4CCN(CC4)CCO [Dasatinib] (first compound max 10 µM, 7x7, partner max 2 µM)
combination Emax [1]: 0.636
combination Emax (EW-24 (Ewing's Sarcoma)): 0.738
combination Emax [2]: 0.736
combination Emax [3]: 0.365
combination Emax [4]: 0.608
combination Emax [5]: 0.567
combination Emax (NB69 (Neuroblastoma)): 0.951
combination Emax (UACC-62 (Melanoma)): 0.345
combination Emax [6]: 0.607
combination Emax [7]: 0.79
combination Emax (ACHN (Kidney Carcinoma)): 0.756
combination Emax (TK10 (Kidney Carcinoma)): 0.826
combination Emax [8]: 0.414

C[C@@H](Oc1cc(-c2cnn(C3CCNCC3)c2)cnc1N)c1c(Cl)ccc(F)c1Cl [Crizotinib] + Cn1cnc2c(F)c(Nc3ccc(Br)cc3Cl)c(C(=O)NOCCO)cc21 [Selumetinib] (first compound max 10 µM, 7x7, partner max 10 µM)
combination Emax [1]: 0.224
combination Emax (EW-24 (Ewing's Sarcoma)): 0.545
combination Emax [2]: 0.522
combination Emax [3]: 0.306
combination Emax [4]: 0.763
combination Emax [5]: 0.381
combination Emax (NB69 (Neuroblastoma)): 1
combination Emax (UACC-62 (Melanoma)): 0.782
combination Emax [6]: 0.587
combination Emax [7]: 0.958
combination Emax (ACHN (Kidney Carcinoma)): 0.572
combination Emax (TK10 (Kidney Carcinoma)): 0.367
combination Emax [8]: 0.552

CS(=O)(=O)CCNCc1ccc(-c2ccc3ncnc(Nc4ccc(OCc5cccc(F)c5)c(Cl)c4)c3c2)o1 [Lapatinib] + Cn1cnc2c(F)c(Nc3ccc(Br)cc3Cl)c(C(=O)NOCCO)cc21 [Selumetinib] (first compound max 10 µM, 7x7, partner max 10 µM)
combination Emax [1]: 0.289
combination Emax (EW-24 (Ewing's Sarcoma)): 0.222
combination Emax [2]: 0.687
combination Emax [3]: 0.275
combination Emax [4]: 0.57
combination Emax [5]: 0.41
combination Emax (NB69 (Neuroblastoma)): 0.916
combination Emax (UACC-62 (Melanoma)): 0.831
combination Emax [6]: 0.621
combination Emax [7]: 0.631
combination Emax (ACHN (Kidney Carcinoma)): 0.577
combination Emax (TK10 (Kidney Carcinoma)): 0.605
combination Emax [8]: 0.694

O=C(c1cc(Cc2n[nH]c(=O)c3ccccc23)ccc1F)N1CCN(C(=O)C2CC2)CC1 [Olaparib] + CC1(C)CCC(CN2CCN(c3ccc(C(=O)NS(=O)(=O)c4ccc(NCC5CCOCC5)c([N+](=O)[O-])c4)c(Oc4cnc5[nH]ccc5c4)c3)CC2)=C(c2ccc(Cl)cc2)C1 [Venetoclax] (first compound max 10 µM, 7x7, partner max 1 µM)
combination Emax [1]: 0.194
combination Emax (EW-24 (Ewing's Sarcoma)): 0.195
combination Emax [2]: 0.213
combination Emax [3]: 0.606
combination Emax [4]: 0.209
combination Emax [5]: 0.0027
combination Emax (NB69 (Neuroblastoma)): 0.643
combination Emax (UACC-62 (Melanoma)): 0.213
combination Emax [6]: 0.133
combination Emax [7]: 0.119
combination Emax (ACHN (Kidney Carcinoma)): 0.143
combination Emax (TK10 (Kidney Carcinoma)): 0.0731
combination Emax [8]: 0.137
